The values that follow are results of earlier work, collected in US20070282422A1, “Medical devices and methods for local delivery of elastin-stabilizing compounds” (Cook Incorporated, priority 2006, published 2007).

For data set [1], the system named is elastin in ascending porcine aorta. The settings on record: tannic concentrations of about 0.3%.
The test system of data set [2] is aortic elastin. Particulars: lyophilized aortic elastin strips in buffered solutions of 0.3%-0.8% tannic acid.

For Tannic acid, the elastin stabilization entry in data set [1] was “elastin stabilization”. Moreover, the “reduced the susceptibility of the elastin towards elastase” value in data set [2] is on record as “about 50%”.
